{
  "source": "patent US20230330093A1",
  "about": "“APPLICATION OF NITROGEN-CONTAINING SATURATED HETEROCYCLIC COMPOUND” (SHANGHAI PHARMACEUTICALS HOLDING CO., LTD., priority 2020, published 2023)",
  "type_in_all_cases": "in vivo, Macaca mulatta (Rhesus Macaque)",
  "key": {"[1]": {"system": "rhesus monkeys with spontaneous chronic kidney disease", "test": "Effect on plasma creatinine Cr-P, 8-week administration", "conditions": "Valsartan group (n = 3)", "experimental": "In the trial, animals were brought in three stages. […] Glomerular filtration rate […]: creatinine (Cr-P), urea nitrogen (BUN) and cystatin (CysC) were detected, and the eGFR value was obtained by calculation. It was performed once before the administration and once every two weeks after the administration. […] ELISA kit was used for NT-proBNP test. [table]"}, "[2]": {"system": "rhesus monkeys with spontaneous chronic kidney disease", "test": "Effect on glomerular filtration rate eGFRcreat-cys, 8-week administration", "conditions": "for eGFRcreat-cys / eGFRcreat-cys Change value (8 weeks): Valsartan group (n = 3); for eGFRcreat-cys Change value (8 weeks): 8 weeks − Baseline", "experimental": "CKD-EPI rating […]-G3b, glomerular filtration rate eGFR: 30 59 ml/min/1.73 m^2; or moderate to severe increase in proteinuria (A2-A3): urine albumin/creatinine ratio (UACR)>15 mg/g-350 mg/g (4-6 hour urine collection), vs. age-matched control group 3±2 mg/g. In the trial, animals were brought in three stages. […] Glomerular filtration rate […]: creatinine (Cr-P), urea nitrogen (BUN) and cystatin (CysC) were detected, and the eGFR value was obtained by calculation. It was performed once before the administration and once every two weeks after the administration. […] ELISA kit was used for NT-proBNP test. [table] Selected […] in each group: 30 59 ml/min/1.73 m^2. The changes in the glomerular filtration rate of W8 and baseline were analyzed."}, "[3]": {"system": "rhesus monkeys with spontaneous chronic kidney disease (CKD)", "test": "Effect on UACR (proteinuria), 8-week oral administration", "conditions": "for MALB: Valsartan group 2.67 mg/kg/time oral (qd wk 1-2, bid wk 3-8); for MALB / UACR change rate / UACR: per animal + Mean ± SD; for UACR change rate: 8 weeks vs baseline, negative = decrease", "experimental": "CKD-EPI rating […]-G3b, glomerular filtration rate eGFR: 30 59 ml/min/1.73 m^2; or moderate to severe increase in proteinuria (A2-A3): urine albumin/creatinine ratio (UACR)>15 mg/g-350 mg/g (4-6 hour urine collection), vs. age-matched control group 3±2 mg/g. In the trial, animals were brought in three stages. […] ELISA kit was used for NT-proBNP test. [table]"}, "[4]": {"conditions": "Baseline, single animals and Mean ± SD"}},
  "note": "Several values for one entry are separate records, joined by “and”; a condition that tells them apart may be missing. Equal values may be shown once. Entries after “also recorded” stand apart in the source; their conditions may differ.",
  "data": [
    {"smiles": "CCCCC(=O)N(Cc1ccc(-c2ccccc2-c2nnn[nH]2)cc1)[C@H](C(=O)O)C(C)C", "note": "[Valsartan, reference compound]", "values": [
      {"measurement": "Cr-P", "setting": "[1]; 2 weeks", "value": "1.12 mg/dL and 1.22 mg/dL"},
      {"measurement": "Cr-P", "setting": "[1]; 2 weeks, mean", "value": "1.15 ± 0.06", "unit": "mg/dL"},
      {"measurement": "Cr-P", "setting": "[1]; 4 weeks", "value": "1.12 mg/dL and 1.08 mg/dL and 1.26 mg/dL"},
      {"measurement": "Cr-P", "setting": "[1]; 4 weeks, mean", "value": "1.15 ± 0.09", "unit": "mg/dL"},
      {"measurement": "Cr-P", "setting": "[1]; 6 weeks", "value": "1.11 mg/dL and 1.26 mg/dL"},
      {"measurement": "Cr-P", "setting": "[1]; 6 weeks, mean", "value": "1.16 ± 0.09", "unit": "mg/dL"},
      {"measurement": "Cr-P", "setting": "[1]; 8 weeks", "value": "1.09 mg/dL and 1.03 mg/dL and 1.26 mg/dL"},
      {"measurement": "Cr-P", "setting": "[1]; 8 weeks, mean", "value": "1.13 ± 0.12", "unit": "mg/dL"},
      {"measurement": "Cr-P", "setting": "[1]; [4]", "value": "1.28 mg/dL and 1.31 mg/dL and 1.50 mg/dL"},
      {"measurement": "Cr-P", "setting": "[1]; Baseline, single animals and Mean ± SD, mean", "value": "1.36 ± 0.12", "unit": "mg/dL"},
      {"measurement": "eGFRcreat-cy, Change value", "setting": "[2]; Valsartan group 2.67 mg/kg/time oral (qd wk 1-2, bid wk 3-8), Baseline, per animal + Mean ± SD", "value": 0, "unit": "ml/min/1.73 m^2"},
      {"measurement": "eGFRcreat-cy, Change value", "setting": "[2]; Valsartan group 2.67 mg/kg/time oral (qd wk 1-2, bid wk 3-8), Baseline, per animal + Mean ± SD, mean", "value": "0 ± 0", "unit": "ml/min/1.73 m^2"},
      {"measurement": "eGFRcreat-cy, Change value", "setting": "[2]; Valsartan group 2.67 mg/kg/time oral, 2 weeks vs baseline, per animal + Mean ± SD", "value": "4 ml/min/1.73 m^2 (2×) and 6 ml/min/1.73 m^2"},
      {"measurement": "eGFRcreat-cy, Change value", "setting": "[2]; Valsartan group 2.67 mg/kg/time oral, 2 weeks vs baseline, per animal + Mean ± SD, mean", "value": "5 ± 1", "unit": "ml/min/1.73 m^2"},
      {"measurement": "eGFRcreat-cy, Change value", "setting": "[2]; Valsartan group 2.67 mg/kg/time oral, 4 weeks vs baseline, per animal + Mean ± SD", "value": "1 ml/min/1.73 m^2 and 7 ml/min/1.73 m^2 and 6 ml/min/1.73 m^2"},
      {"measurement": "eGFRcreat-cy, Change value", "setting": "[2]; Valsartan group 2.67 mg/kg/time oral, 4 weeks vs baseline, per animal + Mean ± SD, mean", "value": "5 ± 3", "unit": "ml/min/1.73 m^2"},
      {"measurement": "eGFRcreat-cy, Change value", "setting": "[2]; Valsartan group 2.67 mg/kg/time oral, 6 weeks vs baseline, per animal + Mean ± SD", "value": "1 ml/min/1.73 m^2 and 5 ml/min/1.73 m^2 and 7 ml/min/1.73 m^2"},
      {"measurement": "eGFRcreat-cy, Change value", "setting": "[2]; Valsartan group 2.67 mg/kg/time oral, 6 weeks vs baseline, per animal + Mean ± SD, mean", "value": "4 ± 3", "unit": "ml/min/1.73 m^2"},
      {"measurement": "eGFRcreat-cy, Change value", "setting": "[2]; Valsartan group 2.67 mg/kg/time oral, 8 weeks vs baseline, per animal + Mean ± SD (p<0.01 vs placebo)", "value": "6±2 ml/min/1.73 m^2 and 5 ml/min/1.73 m^2 and 8 ml/min/1.73 m^2"},
      {"measurement": "eGFRcreat-cys", "setting": "[2]; 2 weeks", "value": "58 ml/min/1.73 m^2 and 54 ml/min/1.73 m^2 and 46 ml/min/1.73 m^2"},
      {"measurement": "eGFRcreat-cys", "setting": "[2]; 2 weeks, group mean", "value": "53 ± 6", "unit": "ml/min/1.73 m^2"},
      {"measurement": "eGFRcreat-cys", "setting": "[2]; 4 weeks", "value": "55 ml/min/1.73 m^2 and 57 ml/min/1.73 m^2 and 46 ml/min/1.73 m^2"},
      {"measurement": "eGFRcreat-cys", "setting": "[2]; 4 weeks, group mean", "value": "53 ± 6", "unit": "ml/min/1.73 m^2"},
      {"measurement": "eGFRcreat-cys", "setting": "[2]; 6 weeks", "value": "55 ml/min/1.73 m^2 and 47 ml/min/1.73 m^2"},
      {"measurement": "eGFRcreat-cys", "setting": "[2]; 6 weeks, group mean", "value": "53 ± 5", "unit": "ml/min/1.73 m^2"},
      {"measurement": "eGFRcreat-cys", "setting": "[2]; 8 weeks", "value": "60 ml/min/1.73 m^2 and 59 ml/min/1.73 m^2 and 46 ml/min/1.73 m^2"},
      {"measurement": "eGFRcreat-cys Change value (8 weeks)", "setting": "[2]", "value": "5 ml/min/1.73 m^2 and 8 ml/min/1.73 m^2"},
      {"measurement": "eGFRcreat-cys Change value (8 weeks)", "setting": "[2]; group mean", "value": "6 ± 2", "unit": "ml/min/1.73 m^2"},
      {"measurement": "eGFRcreat-cys", "setting": "[2]; 8 weeks, group mean", "value": "55 ± 8", "unit": "ml/min/1.73 m^2"},
      {"measurement": "eGFRcreat-cys", "setting": "[2]; [4]", "value": "55 ml/min/1.73 m^2 and 50 ml/min/1.73 m^2 and 40 ml/min/1.73 m^2"},
      {"measurement": "eGFRcreat-cys", "setting": "[2]; Baseline, single animals and Mean ± SD, group mean", "value": "48 ± 7", "unit": "ml/min/1.73 m^2"},
      {"measurement": "MALB", "setting": "[3]; 8 weeks", "value": "6.2 mg/L and 39.9 mg/L and 19.5 mg/L"},
      {"measurement": "MALB", "setting": "[3]; 8 weeks, mean", "value": "21.9 ± 17.0", "unit": "mg/L"},
      {"measurement": "MALB", "setting": "[3]; Baseline", "value": "7.1 mg/L and 60.0 mg/L and 25.8 mg/L"},
      {"measurement": "MALB", "setting": "[3]; Baseline, mean", "value": "31.0 ± 26.8", "unit": "mg/L"},
      {"measurement": "UACR change rate", "setting": "[3]; Valsartan group 2.67 mg/kg/time oral", "value": "-41.10% and -69.59% and 35.88%"},
      {"measurement": "UACR change rate", "setting": "[3]; Valsartan group 2.67 mg/kg/time oral, mean", "value": "−24.93 ± 54.56", "unit": "%"},
      {"measurement": "UACR Benefit assessment", "setting": "[3]; Valsartan group 2.67 mg/kg/time oral, 8 weeks, per animal", "value": "both showed benefit; also recorded: the benefit was not obvious"},
      {"measurement": "UACR", "setting": "[3]; Valsartan group 2.67 mg/kg/time oral, 8 weeks", "value": "22.0 mg/g and 19.3 mg/g and 20.4 mg/g"},
      {"measurement": "UACR", "setting": "[3]; Valsartan group 2.67 mg/kg/time oral, 8 weeks, mean", "value": "20.6 ± 1.3", "unit": "mg/g"},
      {"measurement": "UACR", "setting": "[3]; Valsartan group 2.67 mg/kg/time oral, Baseline", "value": "15 mg/g and 37.3 mg/g and 63.6 mg/g and 15.0 mg/g and 38.7 ± 24.3 mg/g"},
      {"measurement": "UACR of W8 decreased by, compared with the baseline", "setting": "[3]; Valsartan group, 2 animals (No. 2091, No. 4861)", "value": "40%-70%"},
      {"measurement": "W8 UACR after administration", "setting": "[3]; Valsartan group, one animal with baseline UACR 15 mg/g", "value": 20.4, "unit": "%"}
    ]}
  ]
}
